Source: patent US4496551A (priority 1983, dated 1985)

Columns and labels:
Pyricularia oryzae = assay: whole plant or invertebrate; assay type: in vivo; conditions: 168 h, read-out: % Control of Rice Blast
Uromyces phaseoli = assay: bean rust control on bean seedlings; assay type: in vivo; conditions: 20 ppm
Protocol: Compounds of the previous examples were again dissolved in acetone in an amount equal to 6% of the final volume and then suspended at a concentration of 20 ppm in purified water containing 250 ppm of the surfactant TREM 014 (polyhydric alcohol esters). This suspension was sprayed to the point of run-off on bean seedlings. The following day, the plants were inoculated with a spore suspension of the fungus Uromyces phaseoli, causal agent of bean rust, and incubated in a saturated humidity chamber at 20° for 24 hours and then in a greenhouse for 7 days. Disease ratings were then made. Treated plants from successful treatments had few or no rust pustules in contrast to untreated plants which were covered with rust pustules.

Helminthosporium maydis = assay: southern corn leaf blight control on corn seedlings; assay type: in vivo; conditions: Bipolaris maydis, 168 h
How it was run: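 Corn seedlings were sprayed to run-off with 100 ppm compound (6% acetone, 250 ppm TREM 014), inoculated next day with H. maydis spores, then kept 24 h at 20° in saturated humidity and 7 more days in a growth room. Lesions were rated as disease score.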

Pythium aphanadermatum [1] = assay: Pythium control on coated corn seeds; assay type: in vivo; conditions: 504 h, 2 gm/kg seed, 49° F. 2 weeks then 70° F. 1 week
Protocol: Several compounds of the previous examples were incorporated into a proprietary formulation and used to coat corn seeds at a rate of 2 gm/kg seed. After being thoroughly coated, the seeds were allowed to air dry at room temperature. The seeds were then planted into soil amended with a mixture of the fungus Pythium aphanadermatum, sand, and corn meal at a rate sufficient to kill most untreated seeds. The seeds were held at 49° F. for 2 weeks and then at 70° F. for 1 additional week. After this time disease ratings were made.

[2] = system: Puccinia recondita var. tritici; assay: wheat leaf rust control on wheat seedlings; assay type: in vivo; conditions: for pest or weed control at 100 ppm: sprayed day before inoculation
How it was run: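 Compounds at 100 ppm (6% acetone, 250 ppm polyhydric alcohol ester surfactant in water) sprayed to run-off on wheat seedlings; inoculated next day with P. recondita spores. Kept 24 h at saturated humidity, 20°, then 7 days in growth room before rust pustule rating.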

Phytophthora infestans = assay: whole plant or invertebrate; assay type: in vivo; conditions: Phytophthora infestans, in Solanum lycopersicum, 168 h, read-out: % Control of Tomato Late Blight
Venturia inaequalis = assay: apple scab control on apple seedlings; assay type: in vivo; conditions: Venturia inaequalis
How it was run: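 Apple seedlings sprayed to run-off with 100 ppm compound suspension (6% acetone, 250 ppm TREM 014 surfactant). Inoculated next day with Venturia inaequalis spores; 24 hours at 20° in saturated humidity, then 10-12 days in growth room. Scab lesions compared with untreated plants.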

Cercospora arachidicola = assay: peanut early leafspot control on peanut seedlings; assay type: in vivo; conditions: Mycosphaerella arachidis, 336 h
How it was run: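 Compounds dissolved in acetone (6% of final volume) and suspended at 100 ppm in water with 250 ppm TREM 014, sprayed to run-off on seedlings. Cercospora arachidicola inoculated next day; 24 h saturated humidity at 27°, then 14 days growth room before disease and leafspot rating.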

Pythium aphanadermatum [3] = assay: Pythium control on coated cotton seeds; assay type: in vivo; conditions: 168 h, 2 gm/kg seed, 1 week
Text: Several compounds of the previous examples were incorporated into a proprietary formulation and used to coat cotton seeds at a rate of 2 gm/kg seed. After being thoroughly coated, the seeds were allowed to air dry at room temperature. The cotton seeds were then planted into soil amended with the fungus Pythium aphanadermatum, sand, and corn meal at a rate sufficient to kill most untreated seeds. The seeds were held at room temperature for 1 week, after which time disease ratings were made.

5 Phytophthora species = assay type: cell-based; conditions: 200.0 ppm in agar, 22° C., 6 days; controlled = radial growth 1 mm or less
Erysiphe cichoracearum = assay: cucumber powdery mildew control on cucumber seedlings; assay type: in vivo; conditions: Golovinomyces cichoracearum, 168 h, 7 days
How it was run: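 Compounds at 100 ppm in water with 6% acetone and 250 ppm TREM 014 surfactant, sprayed to run-off on cucumber seedlings. Inoculation with Erysiphe cichoracearum spores the following day; disease rated after 7 days in a growth room against untreated plants.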

Rhizoctonia solani = assay: rice sheath blight control on rice seedlings; assay type: in vivo; conditions: Rhizoctonia solani, 168 h, 7 days
How it was run: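 Rice seedlings sprayed to run-off with 100 ppm compound suspension (6% acetone, 250 ppm surfactant), then inoculated next day with bran/mycelium of Rhizoctonia solani. After 7 days in a growth room, sheath blight disease was rated.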

Monilinia fructicola = assay: stone fruit brown rot colony growth inhibition on canned peach halves; assay type: cell-based; conditions: 120 h, dipped 3 minutes, five days, percent growth inhibition of colonies, read-out: % Control Brown Rot
Text: Several compounds of the previous examples were again dissolved in acetone in an amount equal to 5% of the final volume and then suspended at a concentration of 100 ppm in purified water containing 700 ppm of the surfactant TREM 014 (polyhydric alcohol esters). Canned peach halves were dipped in this suspension for three minutes and then placed to air dry in sterile containers. Upon drying, the peach halves were inoculated with two pieces of Monilinia fructicola, causal agent of stone fruit brown rot, mycelium and then incubated in the sterile containers for five days. At that time the radii of the colonies' growth were measured on each peach. […] Percent disease contol (percent growth inhibition of colonies on treated peaches as compared to that of colonies on untreated peaches) is expressed in the table below.

Erysiphe graminis = assay: barley powdery mildew control on barley seedlings; assay type: in vivo; conditions: Blumeria graminis, 168 h; 100 ppm, 7 days
Protocol: Several compounds of the previous examples were again dissolved in acetone in an amount equal to 6% of the final volume and then suspended at a concentration of 100 ppm in purified water containing 250 ppm of the surfactant TREM 014 (polyhydric alcohol esters). This suspension was sprayed to the point of run-off on barley seedlings. The following day, the plants were inoculated with a spore suspension of the fungus Erysiphe graminis, causal agent of barley powdery mildew, and incubated in a growth room for 7 days. Disease ratings were then made. Treated plants had little or no powdery mildew in contrast to untreated plants which were covered with powdery mildew.

cucumber seedlings = assay: phytotoxicity on cucumber seedlings; assay type: in vivo; parameters: key: G: growth reduction; H: hormonal effects; conditions: 100 ppm
peanut seedlings = assay: phytotoxicity on peanut seedlings; assay type: in vivo; parameters: key: B: Phytotoxic burn; conditions: 100 ppm
Protocol: Compounds of the previous examples were again dissolved in acetone in an amount equal to 6% of the final volume and then suspended at a concentration of 100 ppm in purified water containing 250 ppm of the surfactant TREM 014 (polyhydric alcohol esters). This suspension was sprayed to the point of run-off on peanut seedlings. The following day, the plants were inoculated with a spore suspension of Cercospora arachidicola, causal agent of peanut early leafspot, and incubated in a saturated humidity chamber at 27° for 24 hours and then in a growth room for an additional 14 days, when disease ratings were made. Treated plants from successful treatments had few or no leafspots while the untreated plants had numerous leafspots on each leaf.

Structure (SMILES) | pest or weed control at 100 ppm (Pyricularia oryzae) [%] | % Control Bean Rust (Uromyces phaseoli) [%] | pest or weed control at 100 ppm (Helminthosporium maydis) [%] | pest or weed control at 2000 mg/kg (Pythium aphanadermatum [1]) [%] | pest or weed control at 100 ppm [2] [%] | pest or weed control at 100 ppm (Phytophthora infestans) [%] | pest or weed control at 100 ppm (Venturia inaequalis) [%] | pest or weed control at 100 ppm (Cercospora arachidicola) [%] | pest or weed control at 2000 mg/kg (Pythium aphanadermatum [3]) [%] | No. of 5 Phytophthora species controlled in vitro (5 Phytophthora species) | pest or weed control at 100 ppm (Erysiphe cichoracearum) [%] | pest or weed control at 100 ppm (Rhizoctonia solani) [%] | inhibition of growth at 100 ppm (Monilinia fructicola) [%] | pest or weed control at 100 ppm (Erysiphe graminis) [%] | Phytotoxicity (growth reduction or hormonal effects) (cucumber seedlings) | Phytotoxic burn (peanut seedlings) | pest or weed control at 400 ppm ([2]; 400 ppm) [%] | pest or weed control at 400 ppm (Venturia inaequalis; 400 ppm) [%]
C[Si](C)(Cn1ccnc1)c1ccc(-c2ccccc2)cc1 [(1,1'-Biphenyl-4-yl)dimethyl(1H-imidazol-1-ylmethyl)silane] | 0 | 100 | 90 | 32 | 100 | 50 | 80 | 100 | 18 | 3 | 100 | 0 | 83 |  |  |  |  | 
C[Si](C)(Cn1ccnc1)c1ccc(Cl)cc1Cl [(2,4-Dichlorophenyl)dimethyl(1H-imidazol-1-ylmethyl)silane] | 0 | 83 | 70 |  | 90 | 0 | 100 | 100 |  | 5 | 100 | 0 | 100 | 100 | H |  |  | 
C[Si](C)(Cn1ccnc1)c1ccc(C(F)(F)F)cc1 [Dimethyl(1H-imidazol-1-ylmethyl)(4-trifluoromethylphenyl)silane] |  |  |  |  |  |  |  | 36 |  |  | 100 |  |  | 100 |  | B | 100 | 60
C[Si](C)(Cn1ccnc1)c1ccc(F)cc1 [Dimethyl(4-fluorophenyl)(1H-imidazol-1-ylmethyl)silane] | 0 |  | 0 | 15 | 80 | 0 | 0 | 60 | 0 |  | 100 | 0 |  |  | G | B |  | 
